{
  "source": "the NIST ThermoML archive (doi:10.1016/j.jct.2013.03.003)",
  "test": "osmotic coefficient (dimensionless); mn = molality of the nth substance listed, in mol/kg",
  "conditions": "298.15 K, Liquid, isopiestic method",
  "note": "Numbers after ± are expanded uncertainties.",
  "data": [
    {"smiles": "[Br-].[K+]", "note": "[potassium bromide] + O", "values": [
      {"measurement": "osmotic coefficient", "setting": "m1 = 2.545", "result": "0.9434 ± 0.0029"},
      {"measurement": "osmotic coefficient", "setting": "m1 = 2.703", "result": "0.9473 ± 0.0027"},
      {"measurement": "osmotic coefficient", "setting": "m1 = 2.947", "result": "0.9544 ± 0.0023"},
      {"measurement": "osmotic coefficient", "setting": "m1 = 3.171", "result": "0.9579 ± 0.0021"},
      {"measurement": "osmotic coefficient", "setting": "m1 = 3.46", "result": "0.965 ± 0.0019"},
      {"measurement": "osmotic coefficient", "setting": "m1 = 3.778", "result": "0.9757 ± 0.0015"},
      {"measurement": "osmotic coefficient", "setting": "m1 = 4.026", "result": "0.9849 ± 0.0011"},
      {"measurement": "osmotic coefficient", "setting": "m1 = 4.214", "result": "0.9911 ± 0.0009"},
      {"measurement": "osmotic coefficient", "setting": "m1 = 4.694", "result": "1.0054 ± 0.001"},
      {"measurement": "osmotic coefficient", "setting": "m1 = 5.41", "result": "1.032 ± 0.002"}
    ]}
  ]
}
